Laboratory results reported in PubChem BioAssay (NCI).
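In this assay, cells in 96-well plates receive the compound at five concentrations for 48 hours. Endpoints are linearly interpolated between the surrounding concentrations. GI50: concentration for 50% inhibition of growth. TGI: concentration producing complete growth inhibition.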

Key:
Test in all cases: NCI-60 cell line screen, 48 h
TK-10 renal = tested on: TK-10 renal
SK-MEL-2 melanoma = tested on: SK-MEL-2 melanoma
SF-268 CNS = tested on: SF-268 CNS
NCI-H226 lung = tested on: NCI-H226 lung
OVCAR-3 ovarian = tested on: OVCAR-3 ovarian
LOX IMVI melanoma = tested on: LOX IMVI melanoma
A549 NSCLC = tested on: A549 NSCLC
OVCAR-8 ovarian = tested on: OVCAR-8 ovarian
MDA-MB-435 = tested on: MDA-MB-435
M14 melanoma = tested on: M14 melanoma
HL-60(TB) leukemia = tested on: HL-60(TB) leukemia
MALME-3M melanoma = tested on: MALME-3M melanoma
CAKI-1 renal = tested on: CAKI-1 renal
NCI-H23 lung = tested on: NCI-H23 lung
K-562 leukemia = tested on: K-562 leukemia
OVCAR-4 ovarian = tested on: OVCAR-4 ovarian
CCRF-CEM leukemia = tested on: CCRF-CEM leukemia
HCT-116 colon = tested on: HCT-116 colon
MDA-MB-231 breast = tested on: MDA-MB-231 breast
NCI/ADR-RES ovarian = tested on: NCI/ADR-RES ovarian
A498 renal = tested on: A498 renal
BT-549 breast = tested on: BT-549 breast
UO-31 renal = tested on: UO-31 renal
HT29 colon = tested on: HT29 colon
SNB-75 CNS = tested on: SNB-75 CNS
OVCAR-5 ovarian = tested on: OVCAR-5 ovarian
T-47D breast = tested on: T-47D breast
UACC-257 melanoma = tested on: UACC-257 melanoma

## CC[C@H](Nc1cc(C)nc(N)n1)c1nc2cccc(NCc3ccc(C(=O)NO)cc3)c2c(=O)n1-c1ccccc1
TK-10 renal
  GI50: 4.28 µM
  TGI: 16.9 µM
SK-MEL-2 melanoma
  GI50: 2.58 µM
  TGI: 7.37 µM
SF-268 CNS
  GI50: 1.82 µM
  TGI: 3.49 µM
NCI-H226 lung
  GI50: 2.86 µM
  TGI: 14.9 µM
OVCAR-3 ovarian
  GI50: 1.86 µM
  TGI: 4.39 µM
LOX IMVI melanoma
  GI50: 1.78 µM
  TGI: 3.29 µM
A549 NSCLC
  GI50: 3.79 µM
  TGI: 16.4 µM
OVCAR-8 ovarian
  GI50: 2.04 µM
  TGI: 6.13 µM
MDA-MB-435
  GI50: 1.64 µM
  TGI: 3.12 µM
M14 melanoma
  GI50: 1.85 µM
  TGI: 3.88 µM
HL-60(TB) leukemia
  GI50: 2.59 µM
  TGI: 6.1 µM
MALME-3M melanoma
  GI50: 1.39 µM
  TGI: 2.93 µM
CAKI-1 renal
  GI50: 3.33 µM
  TGI: 14.2 µM
NCI-H23 lung
  GI50: 2.01 µM
  TGI: 4.72 µM
K-562 leukemia
  GI50: 2.56 µM
  TGI: 10 µM
OVCAR-4 ovarian
  GI50: 1.61 µM
  TGI: 4.12 µM
CCRF-CEM leukemia
  GI50: 1.62 µM
  TGI: 11.4 µM
HCT-116 colon
  GI50: 1.55 µM
  TGI: 3.72 µM
MDA-MB-231 breast
  GI50: 1.62 µM
  TGI: 3.16 µM
NCI/ADR-RES ovarian
  GI50: 77.2 µM
  TGI: > 100 µM
A498 renal
  GI50: 1.51 µM
  TGI: 3.33 µM
BT-549 breast
  GI50: 2.44 µM
  TGI: 6.57 µM
UO-31 renal
  GI50: 10.2 µM
  TGI: 24.2 µM
HT29 colon
  GI50: 2.69 µM
  TGI: 10.4 µM
SNB-75 CNS
  GI50: 1.12 µM
  TGI: 3.5 µM
OVCAR-5 ovarian
  GI50: 2.4 µM
  TGI: 7.59 µM
T-47D breast
  GI50: 1.54 µM
  TGI: 6.13 µM
UACC-257 melanoma
  GI50: 2.17 µM
  TGI: 7.41 µM
